Data on 21 compounds can be found in patent publication US20250197387A1, “BCL-XL DEGRADERS AND USES THEREOF” (Kymera Therapeutics, Inc., priority 2021, published 2025).

A value given as a limit tells only on which side of the number the result lay.

Common to all, as to type: cell-based
The subject of one assay is MOLT-4 cells. Kind of assay: CTG (CellTiter-Glo) cell viability assay, MOLT-4. Conditions: Homo sapiens, MOLT-4, 72 h, 3 day incubation, read-out: CTG Cell Viability Assay - MOLT-4 3 day: Average external-IC50. The procedure, abridged:
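Luminescence from CellTiter-Glo, read after 3 days of compound exposure at 37 °C, gave viability; IC50 values came from three-parameter logistic curves. Cells were plated at 10,000 per well and dosed over nine 1:3 steps topping at 10 μM.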
In general terms: Cellular ATP, detected with luciferase, serves as a proxy for viable cell number.

A further assay has as its system Caki-2 cells. Kind of assay: CTG (CellTiter-Glo) cell viability assay, Caki-2. Conditions: Homo sapiens, 72 h, 3 day incubation, read-out: CTG Chempartner - Caki-2 3 day: Average external-IC50. The procedure: Compound-mediated viability effect on MOLT-4 and Caki-2 was quantitatively determined using the CellTiter-Glo® Luminescent Cell Viability Assay kit from Promega (Catalog number G7570) following manufacturer's recommended procedures. Briefly, MOLT-4 and Caki-2 cells were seeded into 384 well plates (Grenier Bio-One, Catalog number 781080) with a density of 10,000 cells per well. Compounds were then added to the assay plate with final top concentration of 10 μM and 1:3 dilution series with total of 9 doses. The final DMSO concentration is normalized to 0.2%. The assay plates were incubated at 37° C., for 3 days under 5% CO2. Then the assay plate was equilibrated at room temperature for 10 minutes. To determine cell viability, 30 uL CellTiter Glo reagent was added to each well and the assay plate was centrifuged at 1000 rpm for 30 second, incubated at room temperature for 10 min, and analyzed by detecting the luminescence using a multimode plate reader (EnVision 2105, PerkinElmer). The data was then analyzed by software Prism 7.0 from GraphPad and the dose response curves are fit using a three-parameter logistic equation to calculate IC50.
The letter codes for MOLT-4 IC50 include: A (<0.1 μM); B (0.1-1.0 μM); C (>1.0-3.0 μM); and D (>3.0 μM). The letter codes for Caki-2 IC50 include: A (<0.1 μM); B (0.1-1.0 μM); C (>1.0-10.0 μM); and D (>10.0 μM).

Assay [1] has as its target T1, BCL-XL (Homo sapiens, UniProt Q07817).
T1 construct: endogenous in cells; host or cells: MOLT-4
Kind of assay: BCL-XL degradation assay, western blot in MOLT-4 cells, 16 h. The note with it: western blot, MOLT-4 cells, 16 h; for Dmax: read-out: Bcl-xL WB in MOLT-4 degradation 16 h: Average Dmax %; for DC50: read-out: Bcl-xL WB in MOLT-4 degradation 16 h: Mean external-Abs DC50. Put shortly: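 MOLT-4 cells treated with compounds at 0.02-10 μM final for 16 hr at 37° C; lysates analysed by western blot with anti-BCL-xL, beta-actin and GAPDH loading controls, infrared imaging and densitometry; DC50 and Dmax % reported as letter codes.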

Assay [2] concerns the target T1, BCL-XL. Kind of assay: Bcl-xL ELISA degradation in MOLT-4 cells, 6 h. Conditions: for DC50: read-out: Bcl-xL ELISA in MOLT-4 degradation 6 h: Mean external-Abs DC50. The procedure:
The letter codes for BCL-XL DC50 include: A (<0.01 μM); B (0.01-0.1 μM); C (>[…]); D (>0.5-1.0 μM); and E (>1.0 μM). The letter codes for Dmax % include A (>75%); B (50 to 75%); C (<50%).
(In general: ELISA stands for enzyme-linked immunosorbent assay.)

T1 sequence (Q07817 whole entry): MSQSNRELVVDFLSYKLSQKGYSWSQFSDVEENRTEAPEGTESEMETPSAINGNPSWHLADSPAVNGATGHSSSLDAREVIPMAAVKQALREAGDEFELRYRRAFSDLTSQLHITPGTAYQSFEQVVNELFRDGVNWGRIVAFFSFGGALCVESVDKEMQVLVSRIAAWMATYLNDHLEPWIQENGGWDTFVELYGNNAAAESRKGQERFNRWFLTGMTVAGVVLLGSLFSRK

What is called IC50 is the point on the concentration scale where inhibition reaches its midpoint. As for `Cc1cc(N(C)c2ccc(-c3cnn(CC4CCCC4)c3C)c(C(=O)NS(=O)(=O)c3ccc(N4CCC(C(=O)N[C@H](C(=O)N5C[C@H](O)C[C@H]5C(=O)N[C@@H](C)c5ccc(-c6scnc6C)cc5)C(C)(C)C)CC4)cc3)n2)nnc1Nc1nc2ccccc2s1` [I-441], the IC50 is 1000 to 3000 nM in the assay with MOLT-4 cells and more than 10000 nM in the assay with Caki-2 cells.
Regarding `C#Cc1ccc([C@H](C)NC(=O)[C@@H]2C[C@@H](O)CN2C(=O)[C@@H](NC(=O)CCCCCS(=O)(=O)NC(=O)c2nc(N3CCc4cccc(C(=O)Nc5nc6ccccc6s5)c4C3)ccc2-c2cnn(CC(C)(C)C)c2C)C(C)(C)C)cc1` [I-470], the IC50 in the assay with MOLT-4 cells is less than 100 nM; in the assay on Caki-2 cells, more than 10000 nM.
As usually defined, the Dmax is the greatest extent of degradation seen. For orientation: DC50 means the concentration at which degradation of the target reaches its halfway point. Turning to `Cc1ncsc1-c1ccc([C@H](C)NC(=O)[C@@H]2C[C@@H](O)CN2C(=O)[C@@H](NC(=O)CCCCCS(=O)(=O)NC(=O)c2nc(N3CCc4cccc(C(=O)Nc5nc6ccccc6s5)c4C3)ccc2-c2cnn(CC3CCCCC3)c2C)C(C)(C)C)cc1` [I-118], on BCL-XL [1], the Dmax is more than 75% and the DC50 was less than 10 nM. Moreover, on BCL-XL [2], the Dmax was more than 75% and the DC50 was less than 10 nM. In the assay with Caki-2 cells, the 50% inhibitory concentration (IC50) is more than 10000 nM.
In the case of `Cc1ncsc1-c1ccc([C@H](C)NC(=O)[C@@H]2C[C@@H](O)CN2C(=O)[C@@H](NC(=O)CCCCCCCC(=O)N(C)CC#Cc2cccc(F)c2OCCCc2sc(N3CCc4cccc(C(=O)Nc5nc6ccccc6s5)c4C3)nc2C(=O)O)C(C)(C)C)cc1` [I-17], at BCL-XL [1], the Dmax was more than 75% and the DC50 fell in the range of 10 to 100 nM. Besides, the IC50 in the assay on Caki-2 cells was more than 10000 nM.
For `Cc1ncsc1-c1ccc(CNC(=O)[C@@H]2C[C@@H](O)CN2C(=O)[C@@H](NC(=O)C2(F)CC2)C(C)(C)C)c(OCC(=O)N2CCN(CC[C@H](CSc3ccccc3)Nc3ccc(S(=O)(=O)NC(=O)c4ccc(N5CCN(CC6=C(c7ccc(Cl)cc7)CCC(C)(C)C6)CC5)cc4)cc3S(=O)(=O)C(F)(F)F)CC2)c1` [I-387], at BCL-XL [1], the Dmax is more than 75% and the DC50 is 10 to 100 nM. Moreover, the IC50 in the assay on Caki-2 cells is more than 10000 nM.
`Cc1cc(N2CC(C(=O)N[C@H](C(=O)N3C[C@H](O)C[C@H]3C(=O)NCc3ccc(-c4scnc4C)cc3)C(C)(C)C)C2)ccc1S(=O)(=O)NC(=O)c1nc(N(C)c2cc(C)c(Nc3nc4ccccc4s3)nn2)ccc1-c1cnn(CC23CC4CC(CC(C4)C2)C3)c1C` [I-435]: the IC50 in the assay on MOLT-4 cells was less than 100 nM; with Caki-2 cells, more than 10000 nM.
In the case of `C#Cc1ccc(CNC(=O)[C@@H]2C[C@@H](O)CN2C(=O)[C@@H](NC(=O)CCNCCS(=O)(=O)NC(=O)c2nc(N(C)c3cc(C)c(Nc4nc5ccccc5s4)nn3)ccc2-c2cnn(CC34CC5CC(CC(C5)C3)C4)c2C)C(C)(C)C)c(OCCO)c1` [I-431], the values for the IC50 in the assay with MOLT-4 cells and in the assay with Caki-2 cells were 100 to 1000 nM and more than 10000 nM, respectively.
Regarding `Cc1ncsc1-c1ccc([C@H](C)NC(=O)[C@@H]2C[C@@H](O)CN2C(=O)[C@@H](NC(=O)CCCCCC(=O)NCCOc2ccc(C(=O)Nc3nc4ccccc4s3)c3c2CCN(c2ccc(-c4cnn(CC5CCCCC5)c4C)c(C(=O)O)n2)C3)C(C)(C)C)cc1` [I-44], at BCL-XL [1], the Dmax was more than 75% and the DC50 was 100 to 500 nM. The IC50 with Caki-2 cells is more than 10000 nM.
On to `Cc1c(-c2ccc(N3CCc4cccc(C(=O)Nc5nc6cccnc6s5)c4C3)nc2C(=O)NS(=O)(=O)CCCCCC(=O)N[C@H](C(=O)N2C[C@H](O)C[C@H]2C(=O)N[C@@H](C)c2ccc(C#N)cc2O)C(C)(C)C)cnn1CC1CCCCC1` (single isomer, unassigned) [I-485], for which the IC50 is more than 3000 nM in the assay with MOLT-4 cells and more than 10000 nM in the assay on Caki-2 cells.
The corresponding values for `Cc1cc(N(C)c2ccc(-c3cnn(CC45CC6CC(CC(C6)C4)C5)c3C)c(C(=O)NS(=O)(=O)CCNCCC(=O)N[C@H](C(=O)N3C[C@H](O)C[C@H]3C(=O)N[C@@H](C)c3ccc(-c4scnc4C)cc3)C(C)(C)C)n2)nnc1Nc1nc2ccccc2s1` [I-427] are 100 to 1000 nM and more than 10000 nM.
`Cc1csc(NC(=O)c2cccc3c2CN(c2ccc(-c4cnn(CC5CCCCC5)c4C)c(C(=O)NS(=O)(=O)CCCCCC(=O)N[C@H](C(=O)N4C[C@H](O)C[C@H]4C(=O)N[C@@H](C)c4ccc(-c5scnc5C)cc4)C(C)(C)C)n2)CC3)n1` [I-462]: the IC50 in the assay on MOLT-4 cells is 100 to 1000 nM; in the assay on Caki-2 cells, more than 10000 nM.
The corresponding values for `Cc1cc(N(C)c2ccc(-c3cnn(CC45CC6CC(CC(C6)C4)C5)c3C)c(C(=O)NS(=O)(=O)CCCN(C)CC(=O)N[C@H](C(=O)N3C[C@H](O)C[C@H]3C(=O)N[C@@H](C)c3ccc(-c4scnc4C)cc3)C(C)(C)C)n2)nnc1Nc1nc2cccnc2s1` [I-448] are 100 to 1000 nM and more than 10000 nM.
As to `Cc1ncsc1-c1ccc([C@H](C)NC(=O)[C@@H]2C[C@@H](O)CN2C(=O)[C@@H](NC(=O)C2CCN(c3ccc(S(=O)(=O)NC(=O)c4nc(N5CCc6cccc(C(=O)Nc7nc8ccccc8s7)c6C5)ccc4-c4cccc5c4cnn5C(C)C)cc3)CC2)C(C)(C)C)cc1` [I-297], at BCL-XL [2], the Dmax is less than 50% and the DC50 lay in the range of 500 to 1000 nM. In the assay on Caki-2 cells, the IC50 lay within 1000 to 10000 nM.
For `Cc1ncsc1-c1ccc([C@H](C)NC(=O)[C@@H]2C[C@@H](O)CN2C(=O)[C@@H](NC(=O)CCCC(=O)N(C)CC#Cc2cccc(F)c2OCCCc2sc(N3CCc4cccc(C(=O)Nc5nc6ccccc6s5)c4C3)nc2C(=O)O)C(C)(C)C)cc1` [I-15], at BCL-XL [1], the Dmax lay in the range of 50 to 75% and the DC50 fell in the range of 500 to 1000 nM. For the same compound, the IC50 in the assay with Caki-2 cells is more than 10000 nM.
For the compound `Cc1ncsc1-c1ccc([C@H](C)NC(=O)[C@@H]2C[C@@H](O)CN2C(=O)[C@@H](NC(=O)CCCCCC(=O)N(C)CC#Cc2cccc(F)c2OCCCc2sc(N3CCc4cccc(C(=O)Nc5nc6ccccc6s5)c4C3)nc2C(=O)O)C(C)(C)C)cc1` [I-16], on BCL-XL [1], the Dmax is more than 75% and the DC50 was 100 to 500 nM. The IC50 with Caki-2 cells is more than 10000 nM.
For `Cc1ncsc1-c1ccc(CNC(=O)[C@@H]2C[C@@H](O)CN2C(=O)[C@@H](NC(=O)C2(F)CC2)C(C)(C)C)c(OCCCCCCN(C)C(=O)c2nc(N3CCc4cccc(C(=O)Nc5nc6ccccc6s5)c4C3)ccc2-c2cnn(CC3CCCCC3)c2C)c1` [I-168], the IC50 with MOLT-4 cells is 100 to 1000 nM; in the assay on Caki-2 cells, more than 10000 nM.
For `Cc1cc(N(C)c2ccc(-c3cnn(CC45CC6CC(CC(C6)C4)C5)c3C)c(C(=O)NS(=O)(=O)CCN3CC(C(=O)N[C@H](C(=O)N4C[C@H](O)C[C@H]4C(=O)N[C@@H](C)c4ccc(-c5scnc5C)cc4)C(C)(C)C)C3)n2)nnc1Nc1nc2ccccc2s1` [I-432], the IC50 in the assay on MOLT-4 cells was 1000 to 3000 nM; with Caki-2 cells it was more than 10000 nM.
As to `Cc1ncsc1-c1ccc([C@H](C)NC(=O)[C@@H]2C[C@@H](O)CN2C(=O)[C@@H](NC(=O)CCCCCS(=O)(=O)NC(=O)c2nc(N3CCc4cccc(C(=O)NCc5cnco5)c4C3)ccc2-c2cnn(CC3CCCCC3)c2C)C(C)(C)C)cc1` [I-461], the IC50 was 100 to 1000 nM in the assay on MOLT-4 cells and more than 10000 nM with Caki-2 cells.
Turning to `Cc1ncsc1-c1ccc(CNC(=O)[C@@H]2C[C@@H](O)CN2C(=O)[C@@H](NC(=O)C2(F)CC2)C(C)(C)C)c(OCCCN(C)CC[C@H](CSc2ccccc2)Nc2ccc(S(=O)(=O)NC(=O)c3ccc(N4CCN(CC5=C(c6ccc(Cl)cc6)CCC(C)(C)C5)CC4)cc3)cc2S(=O)(=O)C(F)(F)F)c1` [I-184], on BCL-XL [1], the Dmax was more than 75% and the DC50 is 10 to 100 nM. In addition, on BCL-XL [2], the Dmax lay in the range of 50 to 75% and the DC50 was 100 to 500 nM. The IC50 in the assay on MOLT-4 cells fell in the range of 100 to 1000 nM.
As to `Cc1ncsc1-c1ccc([C@H](C)NC(=O)[C@@H]2C[C@@H](O)CN2C(=O)[C@@H](NC(=O)CCCCCCN(C)C(=O)c2nc(N3CCc4cccc(C(=O)Nc5nc6ccccc6s5)c4C3)ccc2-c2cnn(CC3CCCCC3)c2C)C(C)(C)C)cc1` [I-185], at BCL-XL [1], the greatest degradation seen (Dmax) is more than 75% and the DC50 was in the range of 10 to 100 nM. On BCL-XL [2], the Dmax is 50 to 75% and the DC50 lay within 10 to 100 nM. Moreover, the IC50 with MOLT-4 cells lay within 100 to 1000 nM.
`Cc1ncsc1-c1ccc([C@H](C)NC(=O)[C@@H]2C[C@@H](O)CN2C(=O)[C@@H](NC(=O)CCCCCCC(=O)N2CCN(C[C@@]3(C)CCC(c4ccc(Cl)cc4)=C(CN4CCN(c5ccc(C(=O)NS(=O)(=O)c6ccc(N[C@H](CCN7CCOCC7)CSc7ccccc7)c(S(=O)(=O)C(F)(F)F)c6)cc5)CC4)C3)CC2)C(C)(C)C)cc1` [I-396]: on BCL-XL [1], the Dmax was more than 75% and the DC50 was less than 10 nM. Further, at BCL-XL [2], the Dmax lay within 50 to 75% and the DC50 is 500 to 1000 nM. The IC50 with MOLT-4 cells was in the range of 100 to 1000 nM.
